Among the data in patent US20260028354A1, “TETRAHYDRONAPHTHALENE DERIVATIVES AS ESTROGEN RECEPTOR DEGRADERS” (REGENT OF THE UNIVERSITY OF MICHIGAN, priority 2022, published 2026) are DC50 values, retold here.

Molecules are shown by their SMILES.

The nature of the experiment: Western blot analysis for "B" compounds. The format is cell-based. To be noted: read-out: Traditional Western Degradation Potency (DC50). The protocol:
Western Blot Analysis. Western blot analysis was performed essentially as described previously. The cells treated with indicated compounds were lysed in Radioimmunoprecipitation Assay Protein Lysis and Extraction Buffer (25 mmol/I. Tris.HCl, pH 7.6, 150 mmol/L, NaCl, 1% Nonidet P-40, 1% sodium deoxycholate, and 0.1% sodium dodecyl sulfate) containing proteinase inhibitor cocktail (Roche Diagnostics, Mannheim, Germany). Equal amounts of total protein were electrophoresed through 10% SDS-polyacrylamide gels after determination of protein concentration by BCA assay (Fisher Scientific, Pittsburgh, PA), The separated protein bands were transferred onto PVDF membranes (GE Healthcare Life Sciences, Marlborough, MA) and blotted against different antibodies, as indicated. The blots were scanned, and the band intensities were quantified using GelQuant.NET software provided by biochemlabsolutions.com. The relative mean intensity of target proteins was expressed after normalization to the intensity of glyceraldehyde-3-phosphate dehydrogenase bands.
For orientation: A western blot detects proteins with antibodies after separation by electrophoresis.

Regarding `O=C1CCC(N2C(=O)c3cc4c(cc3C2=O)CN(CC2CN(C(=O)C3CN(c5ccc([C@@H]6c7ccc(O)cc7CC[C@@H]6c6ccccc6)cc5)C3)C2)C4)C(=O)N1` (stereo partly drawn) [Compound B263, 2-(2,6-dioxopiperidin-3-yl)-6-((1-(1-(4-((1R,2S)-6-hydroxy-2-phenyl-1,2,3,4-tetrahydronaphthalen-1-yl)phenyl)azetidine-3-carbonyl)azetidin-3-yl)methyl)-6,7-dihydropyrrolo[3,4-f]isoindole-1,3(2H,5H)-dione], the DC50 is greater than 100 nM.

On to `O=C1CCC(N2C(=O)c3cc4c(cc3C2=O)CN(C(=O)CN2CCC3(CCN(c5ccc([C@@H]6c7ccc(O)cc7CC[C@@H]6c6ccccc6)cc5)CC3)C2)C4)C(=O)N1` (mixture of isomers) [Compound B21, 2-(2,6-dioxopiperidin-3-yl)-6-(2-(8-(4-((1R,2S)-6-hydroxy-2-phenyl-1,2,3,4-tetrahydronaphthalen-1-yl)phenyl)-2,8-diazaspiro[4.5]decan-2-yl)acetyl)-6,7-dihydropyrrolo[3,4-f]isoindole-1,3(2H,5H)-dione], for which the DC50 was greater than 100 nM.

In the case of `CN(C1CCC(C(=O)N2Cc3cc4c(cc3C2)C(=O)N(C2CCC(=O)NC2=O)C4)CC1)C1CCN(c2ccc([C@@H]3c4ccc(O)cc4CC[C@@H]3c3ccccc3)cc2)CC1` (stereo partly drawn) [Compound B201, 3-(6-(4-((1-(4-((1R,2S)-6-hydroxy-2-phenyl-1,2,3,4-tetrahydronaphthalen-1-yl)phenyl)piperidin-4-yl)(methyl)amino)cyclohexane-1-carbonyl)-1-oxo-3,5,6,7-tetrahydropyrrolo[3,4-f]isoindol-2(1H)-yl)piperidine-2,6-dione], the DC50 lay within 10 to 100 nM.

Regarding `O=C1CCC(N2C(=O)c3cc4c(cc3C2=O)CN(C(=O)CN2CCC3(CC2)CCN(c2ccc([C@@H]5c6ccc(B(O)O)cc6CC[C@@H]5c5ccccc5)cc2)CC3)C4)C(=O)N1` (mixture of isomers) [Compound B51, ((5R,6S)-5-(4-(9-(2-(6-(2,6-dioxopiperidin-3-yl)-5,7-dioxo-3,5,6,7-tetrahydropyrrolo[3,4-f]isoindol-2(1H)-yl)-2-oxoethyl)-3,9-diazaspiro[5.5]undecan-3-yl)phenyl)-6-phenyl-5,6,7,8-tetrahydronaphthalen-2-yl)boronic acid], the DC50 is greater than 100 nM.

In the case of `C[C@@H]1CC2(CCN(c3ccc([C@@H]4c5ccc(O)cc5CC[C@@H]4c4ccc(F)cc4)cc3)CC2)CN1CC(=O)N1Cc2cc3c(cc2C1)C(=O)N(C1CCC(=O)NC1=O)C3=O` (stereo partly drawn) [Compound B27, 2-(2,6-dioxopiperidin-3-yl)-6-(2-((R)-8-(4-((1R,2S)-2-(4-fluorophenyl)-6-hydroxy-1,2,3,4-tetrahydronaphthalen-1-yl)phenyl)-3-methyl-2,8-diazaspiro[4.5]decan-2-yl)acetyl)-6,7-dihydropyrrolo[3,4-f]isoindole-1,3(2H,5H)-dione], the DC50 was greater than 100 nM.

Consider `O=C1CCC(N2C(=O)c3cc4c(cc3C2=O)CN(Cc2ccc(N3CC(Oc5ccc([C@@H]6c7ccc(O)cc7CC[C@@H]6c6ccccc6)cc5)C3)nc2)C4)C(=O)N1` (stereo partly drawn) [Compound B91, 2-(2,6-dioxopiperidin-3-yl)-6-((6-(3-(4-((1R,2S)-6-hydroxy-2-phenyl-1,2,3,4-tetrahydronaphthalen-1-yl)phenoxy)azetidin-1-yl)pyridin-3-yl)methyl)-6,7-dihydropyrrolo[3,4-f]isoindole-1,3(2H,5H)-dione], for which the DC50 fell in the range of 10 to 100 nM.

On to `O=C1CCC(N2C(=O)c3cc4c(cc3C2=O)CN(CC(=O)N2CCCC(Oc3ccc([C@@H]5c6ccc(O)cc6CC[C@@H]5c5ccccc5)cc3)C2)C4)C(=O)N1` (mixture of isomers) [Compound B13, 2-(2,6-dioxopiperidin-3-yl)-6-(2-(3-(4-((1R,2S)-6-hydroxy-2-phenyl-1,2,3,4-tetrahydronaphthalen-1-yl)phenoxy)piperidin-1-yl)-2-oxoethyl)-6,7-dihydropyrrolo[3,4-f]isoindole-1,3(2H,5H)-dione], for which the DC50 was greater than 100 nM.

Take `O=C1CCC(N2C(=O)c3cc4c(cc3C2=O)CN(CC(=O)N2CC3(CCN(c5ccc([C@@H]6c7ccc(O)cc7CC[C@@H]6c6ccccc6)cc5)CC3)C2)CCC4)C(=O)N1` (mixture of isomers) [Compound B261, 2-(2,6-dioxopiperidin-3-yl)-6-(2-(7-(4-((1R,2S)-6-hydroxy-2-phenyl-1,2,3,4-tetrahydronaphthalen-1-yl)phenyl)-2,7-diazaspiro[3.5]nonan-2-yl)-2-oxoethyl)-6,7,8,9-tetrahydroazepino[3,4-f]isoindole-1,3(2H,5H)-dione]: the DC50 is greater than 100 nM.

In the case of `O=C1CCC(N2C(=O)c3cc4c(cc3C2=O)CN(CC(=O)N2CCC3(CC2)CCN(c2ccc([C@@H]5c6ccc(O)cc6CC[C@@H]5c5ccc(F)cc5)cc2)CC3)CC4)C(=O)N1` (mixture of isomers) [Compound B193, 2-(2,6-dioxopiperidin-3-yl)-6-(2-(9-(4-((1R,2S)-2-(4-fluorophenyl)-6-hydroxy-1,2,3,4-tetrahydronaphthalen-1-yl)phenyl)-3,9-diazaspiro[5.5]undecan-3-yl)-2-oxoethyl)-5,6,7,8-tetrahydro-1H-pyrrolo[3,4-g]isoquinoline-1,3(2H)-dione], the DC50 was in the range of 10 to 100 nM.

With `O=C1CCC(N2C(=O)c3cc4c(cc3C2=O)CN(CC(=O)NC2CCN(c3ccc([C@@H]5c6ccc(O)cc6CC[C@@H]5c5ccccc5)cc3)CC2)C4)C(=O)N1` (stereo partly drawn) [Compound B93, 2-(6-(2,6-dioxopiperidin-3-yl)-5,7-dioxo-3,5,6,7-tetrahydropyrrolo[3,4-f]isoindol-2(1H)-yl)-N-(1-(4-((1R,2S)-6-hydroxy-2-phenyl-1,2,3,4-tetrahydronaphthalen-1-yl)phenyl)piperidin-4-yl)acetamide], the DC50 is greater than 100 nM.

With `O=C1CCC(N2C(=O)c3cc4c(cc3C2=O)CN(CC(=O)N2CCC3(CC2)CCN(c2ccc([C@@H]5c6ccc(O)cc6CC[C@@H]5c5ccc(F)cc5)cn2)CC3)C4)C(=O)N1` (stereo partly drawn) [Compound B54, 2-(2,6-dioxopiperidin-3-yl)-6-(2-(9-(5-((1S,2S)-2-(4-fluorophenyl)-6-hydroxy-1,2,3,4-tetrahydronaphthalen-1-yl)pyridin-2-yl)-3,9-diazaspiro[5.5]undecan-3-yl)-2-oxoethyl)-6,7-dihydropyrrolo[3,4-f]isoindole-1,3(2H,5H)-dione], the DC50 was greater than 100 nM.

Turning to `O=C1CCC(N2C(=O)c3cc4c(cc3C2=O)CN(Cc2cnc(N3CC(Oc5ccc([C@@H]6c7ccc(O)cc7CC[C@@H]6c6ccccc6)cc5)C3)nc2)C4)C(=O)N1` (stereo partly drawn) [Compound B92, 2-(2,6-dioxopiperidin-3-yl)-6-((2-(3-(4-((1R,2S)-6-hydroxy-2-phenyl-1,2,3,4-tetrahydronaphthalen-1-yl)phenoxy)azetidin-1-yl)pyrimidin-5-yl)methyl)-6,7-dihydropyrrolo[3,4-f]isoindole-1,3(2H,5H)-dione], the DC50 is greater than 100 nM.

In the case of `O=C1CCC(N2Cc3cc4c(cc3C2=O)CN(C(=O)C2CCC(CN3CC(Oc5ccc([C@@H]6c7ccc(O)cc7CC[C@@H]6c6ccccc6)cc5)C3)CC2)C4)C(=O)N1` (stereo partly drawn) [Compound B286, 3-(6-((1R,4r)-4-((3-(4-((1R,2S)-6-hydroxy-2-phenyl-1,2,3,4-tetrahydronaphthalen-1-yl)phenoxy)azetidin-1-yl)methyl)cyclohexane-1-carbonyl)-1-oxo-3,5,6,7-tetrahydropyrrolo[3,4-f]isoindol-2(1H)-yl)piperidine-2,6-dione], the DC50 was greater than 100 nM.

On to `CN(c1ccc([C@@H]2c3ccc(O)cc3CC[C@@H]2c2ccccc2)cc1)C1CN(C[C@H]2CC[C@H](C(=O)N3Cc4cc5c(cc4C3)C(=O)N(C3CCC(=O)NC3=O)C5=O)CC2)C1` (stereo partly drawn) [Compound B132, 2-(2,6-dioxopiperidin-3-yl)-6-((1R,4r)-4-((3-((4-((1R,2S)-6-hydroxy-2-phenyl-1,2,3,4-tetrahydronaphthalen-1-yl)phcnyl)(mcthyl)amino)azctidin-1-yl)mcthyl)cyclohexanc-1-carbonyl)-6,7-dihydropyrrolo[3,4-f]isoindole-1,3(2H,5H)-dione], for which the DC50 was greater than 100 nM.

As for `O=C1CCC(N2C(=O)c3cc4c(cc3C2=O)CN(C(=O)CN2CCC3(CC2)CCN(c2ccc([C@@H]5c6ccc(O)cc6CC[C@@H]5c5ccccc5)cc2)CC3)C4)C(=O)N1` (mixture of isomers) [Compound B18, 2-(2,6-dioxopiperidin-3-yl)-6-(2-(9-(4-((1R,2S)-6-hydroxy-2-phenyl-1,2,3,4-tetrahydronaphthalen-1-yl)phenyl)-3,9-diazaspiro[5.5]undecan-3-yl)acetyl)-6,7-dihydropyrrolo[3,4-f]isoindole-1,3(2H,5H)-dione], the DC50 lay within 10 to 100 nM.

In the case of `O=C1CCC(N2C(=O)c3cc4c(cc3C2=O)CN(C2CCC(CNC3CN(c5ccc([C@@H]6c7ccc(O)cc7CC[C@@H]6c6ccccc6)cc5)C3)CC2)C4)C(=O)N1` (stereo partly drawn) [Compound B181, 2-(2,6-dioxopiperidin-3-yl)-6-(4-(((1-(4-((1R,2S)-6-hydroxy-2-phenyl-1,2,3,4-tetrahydronaphthalen-1-yl)phenyl)azetidin-3-yl)amino)methyl)cyclohexyl)-6,7-dihydropyrrolo[3,4-f]isoindole-1,3(2H,5H)-dione], the DC50 was greater than 100 nM.

For `O=C1CCC(N2C(=O)c3cc4c(cc3C2=O)CN(CCN2CC3(CCN(c5ccc([C@@H]6c7ccc(O)cc7CC[C@@H]6c6ccccc6)cc5)CC3)C2)C4)C(=O)N1` (mixture of isomers) [Compound B197, 2-(2,6-dioxopiperidin-3-yl)-6-(2-(7-(4-((1R,2S)-6-hydroxy-2-phenyl-1,2,3,4-tetrahydronaphthalen-1-yl)phenyl)-2,7-diazaspiro[3.5]nonan-2-yl)ethyl)-6,7-dihydropyrrolo[3,4-f]isoindole-1,3(2H,5H)-dione], the DC50 fell in the range of 10 to 100 nM.

In general, DC50 refers to the concentration at which degradation of the target reaches its halfway point.
